Source: ChEMBL document CHEMBL1152560, “Substituted 2-arylbenzothiazoles as kinase inhibitors: hit-to-lead optimization” (Bioorg Med Chem, 2009)

What was measured:
[1] = target: CDK8/Cyclin C (Homo sapiens) (UniProt P49336+P24863); experiment: Residual activity of CDK8/Cyclin C at 1 uM by microplate scintillation counting; assay type: protein-complex assay
[2] = target: Insulin-like growth factor 1 receptor (Homo sapiens) (UniProt P08069); experiment: Residual activity of IGF1R at 1 uM by microplate scintillation counting
[3] = target: Misshapen-like kinase 1 (Homo sapiens) (UniProt Q8N4C8); experiment: Residual activity of MINK1 at 0.1 uM by microplate scintillation counting
[4] = target: T1, Dual specificity protein kinase TTK (Homo sapiens) (UniProt P33981); experiment: Residual activity of TTK at 1 uM by microplate scintillation counting
T1 sequence (whole entry): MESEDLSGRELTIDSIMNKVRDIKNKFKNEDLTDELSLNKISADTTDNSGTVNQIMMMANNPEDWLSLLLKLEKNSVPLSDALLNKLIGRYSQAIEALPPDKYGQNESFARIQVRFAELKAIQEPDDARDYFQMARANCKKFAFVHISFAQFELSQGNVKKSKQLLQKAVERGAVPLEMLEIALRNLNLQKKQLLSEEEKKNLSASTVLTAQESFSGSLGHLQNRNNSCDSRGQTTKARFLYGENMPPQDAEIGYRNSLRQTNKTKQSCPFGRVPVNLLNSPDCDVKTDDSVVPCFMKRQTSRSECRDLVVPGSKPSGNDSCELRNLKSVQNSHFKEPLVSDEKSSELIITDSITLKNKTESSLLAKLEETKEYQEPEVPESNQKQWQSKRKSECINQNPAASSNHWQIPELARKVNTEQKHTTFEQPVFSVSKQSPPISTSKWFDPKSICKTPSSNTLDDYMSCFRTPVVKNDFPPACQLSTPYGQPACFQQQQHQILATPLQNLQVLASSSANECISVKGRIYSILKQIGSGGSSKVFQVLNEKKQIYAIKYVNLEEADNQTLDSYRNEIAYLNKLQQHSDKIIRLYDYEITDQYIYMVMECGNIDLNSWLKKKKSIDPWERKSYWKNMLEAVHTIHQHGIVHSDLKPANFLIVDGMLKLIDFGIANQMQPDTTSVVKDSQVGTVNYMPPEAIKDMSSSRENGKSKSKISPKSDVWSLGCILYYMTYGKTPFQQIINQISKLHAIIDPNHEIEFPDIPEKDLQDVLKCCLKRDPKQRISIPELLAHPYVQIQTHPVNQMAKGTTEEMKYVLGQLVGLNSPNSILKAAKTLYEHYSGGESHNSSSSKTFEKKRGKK

[5] = target: Tyrosine-protein kinase Fyn (Homo sapiens) (UniProt P06241); experiment: Residual activity of FYN at 10 uM by microplate scintillation counting
[6] = target: T2, Serine/threonine-protein kinase VRK1 (Homo sapiens) (UniProt Q99986); experiment: Residual activity of VRK1 at 0.1 uM by microplate scintillation counting
T2 sequence (whole entry): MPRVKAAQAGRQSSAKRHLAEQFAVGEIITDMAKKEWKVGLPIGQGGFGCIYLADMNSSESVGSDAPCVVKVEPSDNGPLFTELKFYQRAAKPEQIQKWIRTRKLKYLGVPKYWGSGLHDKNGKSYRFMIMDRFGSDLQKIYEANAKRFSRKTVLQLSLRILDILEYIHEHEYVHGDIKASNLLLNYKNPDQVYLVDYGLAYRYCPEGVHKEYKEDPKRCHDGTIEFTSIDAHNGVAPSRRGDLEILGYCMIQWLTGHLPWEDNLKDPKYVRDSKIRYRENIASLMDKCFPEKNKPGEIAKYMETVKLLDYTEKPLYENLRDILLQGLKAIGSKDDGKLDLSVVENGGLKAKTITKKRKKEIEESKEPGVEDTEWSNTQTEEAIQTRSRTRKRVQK

[7] = target: Calcium/calmodulin-dependent protein kinase type II subunit delta (Homo sapiens) (UniProt Q13557); experiment: Residual activity of CAMK2D at 10 uM by microplate scintillation counting
[8] = target: T3, Serine/threonine-protein kinase BRSK1 (Homo sapiens) (UniProt Q8TDC3); experiment: Residual activity of BRSK1 at 1 uM by microplate scintillation counting
T3 sequence (whole entry): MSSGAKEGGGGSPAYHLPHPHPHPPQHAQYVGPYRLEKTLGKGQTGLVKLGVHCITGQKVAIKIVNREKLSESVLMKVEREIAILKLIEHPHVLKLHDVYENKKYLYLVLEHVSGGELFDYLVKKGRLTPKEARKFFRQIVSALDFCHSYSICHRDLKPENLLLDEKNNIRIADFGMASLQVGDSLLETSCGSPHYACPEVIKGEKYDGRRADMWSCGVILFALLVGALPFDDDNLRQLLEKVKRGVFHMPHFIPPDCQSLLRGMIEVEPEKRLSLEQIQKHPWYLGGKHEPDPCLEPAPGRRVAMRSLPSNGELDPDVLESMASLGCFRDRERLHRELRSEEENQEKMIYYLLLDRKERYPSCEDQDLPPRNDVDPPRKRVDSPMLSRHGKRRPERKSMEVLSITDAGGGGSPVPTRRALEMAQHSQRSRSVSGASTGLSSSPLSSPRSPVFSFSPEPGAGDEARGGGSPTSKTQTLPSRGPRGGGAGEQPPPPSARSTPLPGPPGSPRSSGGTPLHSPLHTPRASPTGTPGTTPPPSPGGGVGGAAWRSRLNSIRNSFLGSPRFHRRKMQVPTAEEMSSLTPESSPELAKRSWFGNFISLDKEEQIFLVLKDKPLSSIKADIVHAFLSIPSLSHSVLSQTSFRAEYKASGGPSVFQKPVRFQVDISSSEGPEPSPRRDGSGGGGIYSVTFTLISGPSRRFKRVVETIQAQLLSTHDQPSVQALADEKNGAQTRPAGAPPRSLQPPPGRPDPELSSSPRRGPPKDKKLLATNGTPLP

[9] = target: Cyclin-dependent kinase 5/CDK5 activator 1 (Homo sapiens) (UniProt Q00535+Q15078); experiment: Residual activity of CDK5/p25NCK at 0.1 uM by microplate scintillation counting; assay type: protein-complex assay
[10] = target: Cyclin-dependent kinase 16 (Homo sapiens) (UniProt Q00536); experiment: Residual activity of PCTAIRE1 at 0.1 uM by microplate scintillation counting
[11] = target: Protein kinase C gamma type (Homo sapiens) (UniProt P05129); experiment: Residual activity of PKCgamma at 0.1 uM by microplate scintillation counting
[12] = target: SRSF protein kinase 3 (Homo sapiens) (UniProt Q9UPE1); experiment: Residual activity of STK23 at 0.1 uM by microplate scintillation counting
[13] = target: 3-phosphoinositide-dependent protein kinase 1 (Homo sapiens) (UniProt O15530); experiment: Residual activity of PDK1 at 1 uM by microplate scintillation counting

Sequence of Insulin-like growth factor 1 receptor (Homo sapiens) (P08069 31-736 limits assumed): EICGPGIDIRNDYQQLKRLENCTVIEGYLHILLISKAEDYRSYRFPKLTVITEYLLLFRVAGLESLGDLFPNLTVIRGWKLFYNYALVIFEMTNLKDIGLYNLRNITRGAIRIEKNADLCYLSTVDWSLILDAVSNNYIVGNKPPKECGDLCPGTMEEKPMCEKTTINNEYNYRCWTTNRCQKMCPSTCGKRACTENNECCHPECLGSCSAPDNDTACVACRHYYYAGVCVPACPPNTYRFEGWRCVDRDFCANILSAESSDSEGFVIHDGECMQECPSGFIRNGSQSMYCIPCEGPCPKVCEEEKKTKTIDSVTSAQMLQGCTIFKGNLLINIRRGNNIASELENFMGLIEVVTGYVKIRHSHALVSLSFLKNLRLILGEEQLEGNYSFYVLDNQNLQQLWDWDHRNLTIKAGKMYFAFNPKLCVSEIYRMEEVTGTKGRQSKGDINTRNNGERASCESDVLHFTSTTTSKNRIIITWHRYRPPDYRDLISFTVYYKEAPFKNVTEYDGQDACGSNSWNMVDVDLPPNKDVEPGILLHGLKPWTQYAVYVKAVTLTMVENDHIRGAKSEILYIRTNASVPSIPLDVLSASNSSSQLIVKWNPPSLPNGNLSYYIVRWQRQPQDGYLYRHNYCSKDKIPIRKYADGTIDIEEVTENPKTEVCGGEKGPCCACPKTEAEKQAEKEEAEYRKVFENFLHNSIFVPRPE
Sequence of Insulin-like growth factor 1 receptor (Homo sapiens) (P08069 741-1367 limits assumed): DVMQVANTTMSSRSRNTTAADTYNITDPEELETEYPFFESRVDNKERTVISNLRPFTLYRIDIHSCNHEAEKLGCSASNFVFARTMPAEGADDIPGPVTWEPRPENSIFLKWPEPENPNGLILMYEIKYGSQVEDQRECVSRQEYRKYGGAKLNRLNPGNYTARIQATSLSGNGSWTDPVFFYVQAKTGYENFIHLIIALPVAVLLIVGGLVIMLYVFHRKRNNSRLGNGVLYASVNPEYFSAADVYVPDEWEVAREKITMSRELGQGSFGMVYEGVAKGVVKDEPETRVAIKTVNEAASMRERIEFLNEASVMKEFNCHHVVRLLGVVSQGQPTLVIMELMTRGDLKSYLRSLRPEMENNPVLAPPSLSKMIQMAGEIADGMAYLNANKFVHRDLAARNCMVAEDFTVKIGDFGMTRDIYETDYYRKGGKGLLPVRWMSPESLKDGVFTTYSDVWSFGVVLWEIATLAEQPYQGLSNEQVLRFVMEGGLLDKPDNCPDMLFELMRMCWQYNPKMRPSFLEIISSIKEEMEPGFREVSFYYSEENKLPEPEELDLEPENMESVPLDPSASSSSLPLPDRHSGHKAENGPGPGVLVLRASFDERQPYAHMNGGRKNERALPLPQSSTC
Sequence of Misshapen-like kinase 1 (Homo sapiens) (Q8N4C8 whole entry, looked up): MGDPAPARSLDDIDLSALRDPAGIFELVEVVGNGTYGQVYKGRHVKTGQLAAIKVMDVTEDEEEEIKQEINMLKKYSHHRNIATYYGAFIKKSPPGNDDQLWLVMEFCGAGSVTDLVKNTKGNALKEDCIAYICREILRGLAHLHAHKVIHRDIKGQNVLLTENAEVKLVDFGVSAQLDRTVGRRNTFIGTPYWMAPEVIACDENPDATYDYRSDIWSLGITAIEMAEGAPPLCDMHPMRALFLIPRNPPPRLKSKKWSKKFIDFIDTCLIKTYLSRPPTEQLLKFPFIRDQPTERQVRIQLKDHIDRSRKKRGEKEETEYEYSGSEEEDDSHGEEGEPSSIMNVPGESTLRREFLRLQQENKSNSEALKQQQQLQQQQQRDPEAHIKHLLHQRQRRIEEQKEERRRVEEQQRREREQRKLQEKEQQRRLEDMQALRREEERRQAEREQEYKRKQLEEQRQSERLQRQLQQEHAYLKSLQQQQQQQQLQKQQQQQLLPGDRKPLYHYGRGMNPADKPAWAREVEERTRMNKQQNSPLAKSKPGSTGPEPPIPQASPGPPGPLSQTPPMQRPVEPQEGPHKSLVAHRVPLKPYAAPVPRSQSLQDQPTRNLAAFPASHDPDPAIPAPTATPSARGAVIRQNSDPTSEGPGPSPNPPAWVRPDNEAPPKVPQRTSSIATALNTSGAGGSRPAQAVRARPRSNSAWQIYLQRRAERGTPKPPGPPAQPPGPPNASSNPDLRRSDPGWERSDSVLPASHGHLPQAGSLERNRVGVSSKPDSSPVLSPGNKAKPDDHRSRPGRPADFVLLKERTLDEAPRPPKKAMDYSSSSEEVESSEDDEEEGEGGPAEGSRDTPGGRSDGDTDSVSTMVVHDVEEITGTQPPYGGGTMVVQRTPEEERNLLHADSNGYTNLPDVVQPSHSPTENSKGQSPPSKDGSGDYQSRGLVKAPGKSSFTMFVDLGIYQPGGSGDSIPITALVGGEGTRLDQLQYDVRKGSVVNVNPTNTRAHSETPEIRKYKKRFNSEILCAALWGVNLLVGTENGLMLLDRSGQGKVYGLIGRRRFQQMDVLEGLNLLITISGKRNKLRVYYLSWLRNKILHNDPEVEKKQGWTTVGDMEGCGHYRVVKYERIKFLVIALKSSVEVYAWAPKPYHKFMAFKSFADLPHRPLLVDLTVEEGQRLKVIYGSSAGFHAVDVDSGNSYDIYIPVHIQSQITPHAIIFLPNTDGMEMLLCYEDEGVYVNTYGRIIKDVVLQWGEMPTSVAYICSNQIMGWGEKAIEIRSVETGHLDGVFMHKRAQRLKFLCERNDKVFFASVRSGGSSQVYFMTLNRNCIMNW
Sequence of Tyrosine-protein kinase Fyn (Homo sapiens) (P06241 2-537 limits assumed): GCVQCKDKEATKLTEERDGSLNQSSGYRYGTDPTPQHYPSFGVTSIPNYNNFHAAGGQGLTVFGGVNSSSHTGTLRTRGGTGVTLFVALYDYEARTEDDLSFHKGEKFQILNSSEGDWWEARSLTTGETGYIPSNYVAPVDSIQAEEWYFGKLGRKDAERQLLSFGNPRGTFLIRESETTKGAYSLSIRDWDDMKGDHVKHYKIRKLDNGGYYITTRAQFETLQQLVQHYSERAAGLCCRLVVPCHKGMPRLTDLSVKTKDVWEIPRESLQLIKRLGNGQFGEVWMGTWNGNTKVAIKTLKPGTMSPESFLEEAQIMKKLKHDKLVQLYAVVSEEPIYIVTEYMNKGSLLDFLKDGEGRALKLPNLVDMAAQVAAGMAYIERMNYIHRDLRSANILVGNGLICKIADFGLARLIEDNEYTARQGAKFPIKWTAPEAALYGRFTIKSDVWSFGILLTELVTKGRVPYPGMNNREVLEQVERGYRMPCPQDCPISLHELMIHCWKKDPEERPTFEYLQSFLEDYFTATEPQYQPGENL
Sequence of Calcium/calmodulin-dependent protein kinase type II subunit delta (Homo sapiens) (Q13557 whole entry): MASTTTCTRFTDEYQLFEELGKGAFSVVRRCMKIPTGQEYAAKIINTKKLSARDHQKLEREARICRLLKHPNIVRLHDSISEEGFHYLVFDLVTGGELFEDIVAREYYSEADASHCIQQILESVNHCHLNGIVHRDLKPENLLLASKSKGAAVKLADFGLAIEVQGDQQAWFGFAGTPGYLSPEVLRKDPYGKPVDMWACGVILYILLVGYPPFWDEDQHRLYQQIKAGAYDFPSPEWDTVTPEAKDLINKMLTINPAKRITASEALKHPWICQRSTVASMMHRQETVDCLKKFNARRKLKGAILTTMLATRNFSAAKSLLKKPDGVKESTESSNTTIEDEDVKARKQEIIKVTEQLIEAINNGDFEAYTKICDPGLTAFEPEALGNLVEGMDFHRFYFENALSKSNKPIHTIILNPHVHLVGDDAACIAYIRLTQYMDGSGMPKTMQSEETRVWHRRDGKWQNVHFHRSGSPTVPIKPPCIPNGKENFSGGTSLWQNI
Sequence of SRSF protein kinase 3 (Homo sapiens) (Q9UPE1 whole entry): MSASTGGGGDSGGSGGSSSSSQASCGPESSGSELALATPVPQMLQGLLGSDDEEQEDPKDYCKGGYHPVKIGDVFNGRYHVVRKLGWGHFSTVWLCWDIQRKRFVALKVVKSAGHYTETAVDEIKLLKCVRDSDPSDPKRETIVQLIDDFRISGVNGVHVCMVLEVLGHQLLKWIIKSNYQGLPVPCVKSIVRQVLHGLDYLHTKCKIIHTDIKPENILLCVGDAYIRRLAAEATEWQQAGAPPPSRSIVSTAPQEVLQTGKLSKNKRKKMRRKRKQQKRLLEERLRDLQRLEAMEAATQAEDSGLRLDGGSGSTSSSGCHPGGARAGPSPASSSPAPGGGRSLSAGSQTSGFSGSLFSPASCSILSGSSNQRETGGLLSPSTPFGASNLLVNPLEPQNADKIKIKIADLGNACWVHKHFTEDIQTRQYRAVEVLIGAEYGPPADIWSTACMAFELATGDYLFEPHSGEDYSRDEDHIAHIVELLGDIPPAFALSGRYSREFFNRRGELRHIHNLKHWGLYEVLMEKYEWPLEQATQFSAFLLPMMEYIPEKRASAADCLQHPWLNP

SMILES: COc1cc2c(Oc3ccc(-c4nc5ccccc5s4)cc3)ncnc2cc1OCCCN1CCN(C)CC1
- residual activity [1]: 79%
- residual activity [2]: 100%
- residual activity [3]: 77%
- residual activity [4]: 101%
- residual activity [5]: 56%
- residual activity [6]: 97%
- residual activity [7]: 28%
- residual activity [8]: 91%
- residual activity [9]: 78%
- residual activity [10]: 78%
- residual activity [11]: 120%
- residual activity [12]: 88%
- residual activity [13]: 101%

SMILES: COc1cc2c(Oc3ccc(-c4nc5ccccc5s4)cc3)ncnc2cc1OCCCN1CCCC1
- residual activity [1]: 95%
- residual activity [2]: 100%
- residual activity [3]: 101%
- residual activity [4]: 85%
- residual activity [5]: 70%
- residual activity [6]: 93%
- residual activity [7]: 13%
- residual activity [8]: 91%
- residual activity [9]: 90%
- residual activity [10]: 83%
- residual activity [11]: 99%
- residual activity [12]: 80%
- residual activity [13]: 102%

SMILES: COc1cc2c(Oc3ccc(-c4nc5ccccc5s4)cc3F)ncnc2cc1OCCCN1CCN(C)CC1
- residual activity [1]: 81%
- residual activity [2]: 115%
- residual activity [3]: 77%
- residual activity [4]: 105%
- residual activity [5]: 10%
- residual activity [6]: 89%
- residual activity [7]: 44%
- residual activity [8]: 91%
- residual activity [9]: 87%
- residual activity [10]: 76%
- residual activity [11]: 101%
- residual activity [12]: 88%
- residual activity [13]: 108%
